Measured values from US20250092044A1, “Kinase Inhibitors” (Incyte Corporation, priority 2023, published 2025).

How the values were obtained:
[1] = test system: STAT5 (Tyr694) phosphorylation in SET-2 cells; assay: STAT5 (Tyr694) Phosphorylation Cell Based Assay; settings: Homo sapiens, 2 hours, read-out: SET2 IC50
Method: SET-2 cells was purchased from DSMZ (Germany). RPMI1640 medium, Fetal Bovine Serum and 384-white sold flat-bottom small volume plate were purchased from Thermo Fisher Scientific (Waltham, MA). Phospho-STAT5 (Tyr694) HTRF kit was purchased from Perkin Elmer (Waltham, MA).
SET-2 cells were cultured in RPMI media with 20% FBS at 37° C. in humidified incubator supplied with 5% CO2. On the day of assay, the cells were centrifuged to remove the culture media and resuspended with prewarmed RPMI with 10% FBS. Testing compounds were prepared by serial dilution in DMSO and 50 nL/well test compounds were transferred to the 384 white low volume cell culture plate (Greiner Bio-one) by ECHO liquid handler (Labcyte). The cells were then dispensed with Multidrop (Thermo Fisher, Waltham, MA) at 10 μL/well (7×10^6 cells/mL) with 0.5% DMSO in the final assay. After the treated cells were incubated for 2 hours at 37° C./5% CO2 incubator, 4 μL/well supplemented lysis buffer (100× blocking buffer diluted 25 fold in 4× lysis buffer, Perkin Elmer) were added and incubated at room temperature for 90 min on orbital shaker at 600 rpm. Phospho-STAT5 Cryptate antibody and Phospho-STAT5 d2 antibody (1:1 vol/vol) were premixed and diluted 20 fold with in the detection buffer (Perkin Elmer). 4 μL of the premixed antibody solution were added to each well followed with 24 hours incubation at room temperature on orbital shaker at 600 rpm. The product activity was determined by measuring the fluorescence at 620 nm and 665 nm on Pherastar microplate reader (BMG Labtech). A ratio is calculated (665/620) for each well. Wells with DMSO only served as the positive controls and wells containing high concentration of control compound were used as negative controls. IC50 determination was performed by fitting the curve of percent control activity versus the log of the compound concentration using the GraphPad Prism 7.0 software.

[2] = molecular target: catalytic domain (JH1) of human JAK2 (Homo sapiens (Human), UniProt O60674); assay: JAK2 LanthaScreen JH1 Binding Assay; settings: read-out: JH1 Bind IC50
Chain of catalytic domain (JH1) of human JAK2 (O60674 826-1132): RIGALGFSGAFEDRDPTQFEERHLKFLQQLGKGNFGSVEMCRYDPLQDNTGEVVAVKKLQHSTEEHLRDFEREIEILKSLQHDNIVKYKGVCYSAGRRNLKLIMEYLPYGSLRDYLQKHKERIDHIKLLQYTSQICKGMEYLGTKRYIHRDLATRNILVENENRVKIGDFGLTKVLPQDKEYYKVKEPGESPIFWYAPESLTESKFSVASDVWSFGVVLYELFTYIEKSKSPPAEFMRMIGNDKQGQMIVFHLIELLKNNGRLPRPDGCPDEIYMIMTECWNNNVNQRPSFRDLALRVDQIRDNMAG
Method: JAK2 JH1 binding assay utilizes catalytic domain (JH1, amino acids 826-1132) of human JAK2 expressed as N-terminal FLAG-tagged, biotinylated protein in a baculovirus expression system (Carna Biosciences, Product #08-445-20N). The assay was conducted in black 384-well polystyrene plates in a final reaction volume of 20 μL. JAK2 JH1 (1.5 nM) was incubated with compounds (100 nL serially diluted in DMSO) in the presence of 50 nM fluorescent JAK2-JH1 tracer and 0.5 nM Streptavidin-Tb cryptate (Cisbio Part #610SATLB) in assay buffer (50 mM Tris, pH=7.5, 10 mM MgCl2, 0.01% Brij-35, 0.1% BSA, 1 mM EGTA, 5% Glycerol and 5 mM DTT). Non-specific binding was accessed in the presence of 2 mM ATP. After incubation for 2 hours at 25° C., LanthaScreen signals were read on a PHERAstar FS plate reader (BMG LABTECH). Data was analyzed with IDBS XLfit and GraphPad Prism 5.0 software using a four parameter dose response curve to determine IC50 for each compound.

[3] = molecular target: pseudo-kinase domain (JH2) of human V617F mutant JAK2 (Homo sapiens (Human), UniProt O60674, F794H/V617F/W659A/W777A); assay: JAK2 LanthaScreen JH2-V617F Binding Assay; settings: read-out: JH2 V617F Bind IC50
Chain of pseudo-kinase domain (JH2) of human V617F mutant JAK2 (O60674 536-812 V617F/W659A/W777A/F794H): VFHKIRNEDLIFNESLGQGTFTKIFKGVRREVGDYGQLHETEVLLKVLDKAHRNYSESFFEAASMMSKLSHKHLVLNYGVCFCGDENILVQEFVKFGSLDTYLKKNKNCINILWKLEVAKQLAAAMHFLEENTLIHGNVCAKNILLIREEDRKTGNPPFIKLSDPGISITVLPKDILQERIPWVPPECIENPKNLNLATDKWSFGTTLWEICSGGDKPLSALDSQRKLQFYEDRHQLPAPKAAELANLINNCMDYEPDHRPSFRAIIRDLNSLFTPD
Method: JAK2 JH2-V617F binding assay utilizes pseudo-kinase domain (JH2, amino-acids 536-812 with 3 surface mutations W659A, W777A, F794H) of human V617F mutant JAK2 expressed as C-terminal His-Avi-tagged, biotinylated protein in a baculovirus expression system (BPS Bioscience, Catalog #79498). The assay was conducted in black 384-well polystyrene plates in a final reaction volume of 20 μL. JAK2 JH2-V617F (0.26 nM) was incubated with compounds (100 nL serially diluted in DMSO) in the presence of 50 nM Fluorescent JAK2-JH2 Tracer (MedChem Express Catalog #HY-102055) and 0.25 nM Streptavidin-Tb cryptate (Cisbio Part #610SATLB) in assay buffer (50 mM Tris, pH=7.5, 10 mM MgCl2, 0.01% Brij-35, 0.1% BSA, 1 mM EGTA, 5% Glycerol and 5 mM DTT). Non-specific binding was accessed in the presence of 2 mM ATP. After incubation for 1 hour at 25° C., LanthaScreen signals were read on a PHERAstar FS plate reader (BMG LABTECH). Data was analyzed with IDBS XLfit and GraphPad Prism 5.0 software using a four parameter dose response curve to determine IC50 for each compound.

[4] = test system: TRKA; assay: TRKA Enzymatic Assay; format: biochemical
Method: (§1) The kinase assays were carried out at 24° C. temperature in assay buffer (HEPES 50 mM, pH 7.0, NaN3 0.02%, BSA 0.01%, Orthovanadate 0.1 mM, DTT 1 mM, MgCl2 10 mM) in a final volume of 10 μL. Testing compounds were prepared by serial dilution in DMSO and transferred to the plate wells by ECHO liquid handler (Labcyte) with 0.5% DMSO in the final assay. […]. Reactions were initiated by the addition of 5 μL ATP in assay buffer. The final 10 μL kinase reaction consisted of 0.58 nM TRKA, 1 mM ATP, 500 nM TK Substrate-biotin and SEB reagent 62.5 nM in assay buffer. […] After 60 minutes incubation at room temperature, the product activity was determined by measuring the fluorescence at 620 nm and 665 nm on Pherastar microplate reader (BMG Labtech). A ratio was calculated (665/620 nm) for each well. Wells with DMSO only served as the positive controls and wells containing no ATP were used as negative controls. IC50 determination was performed by fitting the curve of percent control activity versus the log of the compound concentration using the Gene data.

[5] = molecular target: TRKA (Homo sapiens (Human), UniProt P04629); assay: TRKA Enzymatic Assay; format: biochemical; settings: 1 mM ATP
Chain of TRKA (Homo sapiens (Human), UniProt P04629) (P04629 33-796, species assumed): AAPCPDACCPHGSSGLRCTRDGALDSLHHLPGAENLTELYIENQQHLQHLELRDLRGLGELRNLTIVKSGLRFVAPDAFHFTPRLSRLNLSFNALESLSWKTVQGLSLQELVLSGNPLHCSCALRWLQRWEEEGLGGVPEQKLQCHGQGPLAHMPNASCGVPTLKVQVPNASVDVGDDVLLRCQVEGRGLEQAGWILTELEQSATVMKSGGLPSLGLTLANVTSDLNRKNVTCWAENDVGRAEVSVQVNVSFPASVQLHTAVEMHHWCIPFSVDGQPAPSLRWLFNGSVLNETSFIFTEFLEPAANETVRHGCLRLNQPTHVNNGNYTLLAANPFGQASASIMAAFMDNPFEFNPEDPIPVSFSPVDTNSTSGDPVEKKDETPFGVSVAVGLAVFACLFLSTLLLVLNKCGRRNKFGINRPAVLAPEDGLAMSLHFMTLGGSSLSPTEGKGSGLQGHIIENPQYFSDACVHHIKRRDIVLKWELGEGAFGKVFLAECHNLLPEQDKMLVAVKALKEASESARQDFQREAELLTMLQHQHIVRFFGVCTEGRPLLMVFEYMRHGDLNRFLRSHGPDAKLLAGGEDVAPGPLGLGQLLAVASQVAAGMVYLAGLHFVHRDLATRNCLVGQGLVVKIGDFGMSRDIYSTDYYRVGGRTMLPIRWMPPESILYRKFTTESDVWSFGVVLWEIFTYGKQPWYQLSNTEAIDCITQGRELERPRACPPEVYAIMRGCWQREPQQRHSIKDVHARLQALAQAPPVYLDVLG
Method: as §1

[6] = molecular target: FLT3 (Homo sapiens (Human), UniProt P36888); assay: FLT3 Enzymatic Assay; format: biochemical; settings: 1 mM ATP
Chain of FLT3 (Homo sapiens (Human), UniProt P36888) (P36888 27-993, species assumed): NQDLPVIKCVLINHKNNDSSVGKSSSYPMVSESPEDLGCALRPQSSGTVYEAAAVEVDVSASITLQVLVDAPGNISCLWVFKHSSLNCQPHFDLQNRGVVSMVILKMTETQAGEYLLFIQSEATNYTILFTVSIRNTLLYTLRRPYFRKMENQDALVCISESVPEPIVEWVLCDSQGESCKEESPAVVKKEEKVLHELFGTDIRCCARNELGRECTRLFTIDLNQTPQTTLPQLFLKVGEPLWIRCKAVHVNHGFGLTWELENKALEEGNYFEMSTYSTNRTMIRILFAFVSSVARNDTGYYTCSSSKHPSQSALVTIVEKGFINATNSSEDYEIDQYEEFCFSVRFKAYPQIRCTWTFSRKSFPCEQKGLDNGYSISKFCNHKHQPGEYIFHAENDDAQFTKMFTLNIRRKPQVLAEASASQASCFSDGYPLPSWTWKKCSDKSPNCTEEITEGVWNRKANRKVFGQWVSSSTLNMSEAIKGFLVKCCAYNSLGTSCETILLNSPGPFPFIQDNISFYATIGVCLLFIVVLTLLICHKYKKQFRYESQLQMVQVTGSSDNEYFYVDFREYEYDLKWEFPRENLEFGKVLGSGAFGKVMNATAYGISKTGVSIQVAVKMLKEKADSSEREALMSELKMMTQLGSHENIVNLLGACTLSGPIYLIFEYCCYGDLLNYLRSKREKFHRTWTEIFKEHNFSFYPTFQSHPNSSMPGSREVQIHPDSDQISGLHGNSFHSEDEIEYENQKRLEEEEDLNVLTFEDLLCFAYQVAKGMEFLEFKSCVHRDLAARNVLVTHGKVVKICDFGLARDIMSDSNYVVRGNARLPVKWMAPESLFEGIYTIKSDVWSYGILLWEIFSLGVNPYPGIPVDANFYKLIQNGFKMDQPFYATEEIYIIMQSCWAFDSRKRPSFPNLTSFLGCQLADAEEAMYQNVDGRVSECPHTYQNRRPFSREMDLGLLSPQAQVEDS
Method: (§2) The kinase assays were carried out at room temperature in assay buffer (HEPES 50 mM, pH 7.0, NaN3 0.02%, BSA 0.01%, Orthovanadate 0.1 mM, DTT 1 mM, MgCl2 10 mM) in a final volume of 10 μL. Testing compounds were prepared by serial dilution in DMSO and transferred to the plate wells by ECHO liquid handler (Labcyte) with 0.5% DMSO in the final assay. […]. Reactions were initiated by the addition of 5 μL ATP in assay buffer. The final 10 μL kinase reaction consists of 0.011 nM FLT3, 1 mM ATP, 500 nM TK Substrate-biotin and SEB reagent 62.5 nM in assay buffer. […] The plates were then sealed and centrifuged at 1800 rpm for 2 minutes. After 60 minutes incubation at room temperature, the product activity was determined by measuring the fluorescence at 620 nm and 665 nm on Pherastar microplate reader (BMG Labtech). A ratio is calculated (665/620 nm) for each well. Wells with DMSO only were served as the positive controls and wells containing no ATP were used as negative controls. IC50 determination was performed by fitting the curve of percent control activity versus the log of the compound concentration using the GraphPad Prism 7.0 software.

[7] = test system: FLT3; assay: FLT3 Enzymatic Assay; format: biochemical
Method: as §2

| SMILES | IC50 [1] [nM] | IC50 [2] [nM] | IC50 [3] [nM] | Selectivity TRKA/JH2 V617F [4] | IC50 [5] [nM] | IC50 [6] [nM] | Selectivity FLT3/JH2 V617F [7] |
| --- | --- | --- | --- | --- | --- | --- | --- |
| COC(=O)N[C@@H]1CC[C@@H](n2c(=O)n(C)c3cnc4[nH]c(-c5ccc(C(=O)N(C)C)cc5)c(-c5ccc6c(cnn6C(C)C)c5)c4c32)C1 [Example 22, Methyl ((1R,3R)-3-(7-(4-(dimethylcarbamoyl)phenyl)-8-(1-isopropyl-1H-indazol-5-yl)-3-methyl-2-oxo-3,6-dihydroimidazo[4,5-d]pyrrolo[2,3-b]pyridin-1(2H)-yl)cyclopentyl)carbamate] | ≤ 300 | > 1000 | ≤ 10 | ***** (selectivity of >5000-fold to ≤12500-fold) | 250 to 1250 | 250 to 1250 | ***** (selectivity of >5000-fold to ≤12500-fold) |
| COC(=O)N[C@@H]1CC[C@@H](n2c(=O)n(C)c3cnc4[nH]c(-c5ccc(C(=O)N6CCOCC6)cc5)c(-c5ccc6c(cnn6C(C)C)c5)c4c32)C1 [Example 20, Methyl ((1R,3R)-3-(8-(1-isopropyl-1H-indazol-5-yl)-3-methyl-7-(4-(morpholine-4-carbonyl)phenyl)-2-oxo-3,6-dihydroimidazo[4,5-d]pyrrolo[2,3-b]pyridin-1(2H)-yl)cyclopentyl)carbamate] | ≤ 300 | > 1000 | ≤ 10 | ***** (selectivity of >5000-fold to ≤12500-fold) | 250 to 1250 | 250 to 1250 | ***** (selectivity of >5000-fold to ≤12500-fold) |
| COCCNC(=O)c1ccc(-c2[nH]c3ncc4c(c3c2-c2ccc3c(cnn3C(C)C)c2)n([C@@H]2CC[C@@H](NC(=O)OC)C2)c(=O)n4C)cc1 [Example 19, Methyl ((1R,3R)-3-(8-(1-isopropyl-1H-indazol-5-yl)-7-(4-((2-methoxyethyl)carbamoyl)phenyl)-3-methyl-2-oxo-3,6-dihydroimidazo[4,5-d]pyrrolo[2,3-b]pyridin-1(2H)-yl)cyclopentyl)carbamate] | ≤ 300 | > 1000 | ≤ 10 | ****** (selectivity of >12500-fold) | 1250 to 2500 | 250 to 1250 | **** (selectivity of >1750-fold to ≤5000-fold) |
| COC(=O)N[C@@H]1CC[C@@H](n2c(=O)n(C)c3cnc4[nH]c(-c5ccc(C(=O)NCCCNc6ccccc6)c(F)c5)c(-c5ccc6c(cnn6C(C)C)c5)c4c32)C1 [Example 7, Methyl ((1R,3R)-3-(7-(3-fluoro-4-((3-(phenylamino)propyl)carbamoyl)phenyl)-8-(1-isopropyl-1H-indazol-5-yl)-3-methyl-2-oxo-3,6-dihydroimidazo[4,5-d]pyrrolo[2,3-b]pyridin-1(2H)-yl)cyclopentyl)carbamate] | > 800 | > 1000 | ≤ 10 | ***** (selectivity of >5000-fold to ≤12500-fold) | > 2500 | > 2500 | ***** (selectivity of >5000-fold to ≤12500-fold) |
| COC(=O)N[C@@H]1CC[C@@H](n2c(=O)n(C)c3cnc4[nH]c(-c5ccc(C(=O)N6C7CCC6COC7)c(OC)c5)c(-c5cccc(F)c5)c4c32)C1 [Example 5, Methyl ((1R,3R)-3-(7-(4-(3-oxa-8-azabicyclo[3.2.1]octane-8-carbonyl)-3-methoxyphenyl)-8-(3-fluorophenyl)-3-methyl-2-oxo-3,6-dihydroimidazo[4,5-d]pyrrolo[2,3-b]pyridin-1(2H)-yl)cyclopentyl)carbamate] | > 800 | > 1000 | ≤ 10 | ** (selectivity of >500-fold to ≤1500-fold) | 250 to 1250 | 1250 to 2500 | ***** (selectivity of >5000-fold to ≤12500-fold) |
| COC(=O)N[C@@H]1CC[C@@H](n2c(=O)n(C)c3cnc4[nH]c(-c5ccc(C(=O)N6CCC(F)(F)CC6)c(F)c5)c(-c5ccc6c(cnn6C(C)C)c5)c4c32)C1 [Example 24, Methyl ((1R,3R)-3-(7-(4-(4,4-difluoropiperidine-1-carbonyl)-3-fluorophenyl)-8-(1-isopropyl-1H-indazol-5-yl)-3-methyl-2-oxo-3,6-dihydroimidazo[4,5-d]pyrrolo[2,3-b]pyridin-1(2H)-yl)cyclopentyl)carbamate] | 300 to 800 | > 1000 | ≤ 10 | ****** (selectivity of >12500-fold) | > 2500 | > 2500 | ****** (selectivity of >12500-fold) |
